“And” between values parts separate entries of the source, which are not always exact repeats. Equal values may be shown once.
Assays:
Format in all cases: cell-based
[1] = target: T1, 320 non-olfactory GPCRs (Homo sapiens, UniProt P41180)
T1 construct: expressed in transfected cells; host or cells: HTLA cells

[2] = target: T2, 320 non-olfactory GPCRs (Homo sapiens, UniProt P51684)
T2 construct: expressed in transfected cells; host or cells: HTLA cells

[3] = target: 320 non-olfactory GPCRs (Homo sapiens, UniProt Q16581)
Chain of 320 non-olfactory GPCRs (Homo sapiens, UniProt Q16581) (Q16581 whole entry): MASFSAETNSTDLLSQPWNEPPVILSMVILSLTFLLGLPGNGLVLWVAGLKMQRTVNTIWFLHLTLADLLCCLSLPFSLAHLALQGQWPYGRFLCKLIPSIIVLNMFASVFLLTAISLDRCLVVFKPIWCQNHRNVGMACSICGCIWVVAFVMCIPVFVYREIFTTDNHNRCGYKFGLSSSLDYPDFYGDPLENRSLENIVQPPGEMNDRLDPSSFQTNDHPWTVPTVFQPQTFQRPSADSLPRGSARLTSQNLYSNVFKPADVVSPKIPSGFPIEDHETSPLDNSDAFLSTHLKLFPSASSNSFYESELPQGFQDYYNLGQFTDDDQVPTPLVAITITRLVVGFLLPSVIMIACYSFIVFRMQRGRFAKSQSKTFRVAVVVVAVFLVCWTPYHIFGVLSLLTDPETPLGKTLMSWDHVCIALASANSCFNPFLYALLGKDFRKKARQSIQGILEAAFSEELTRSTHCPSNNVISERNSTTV

[4] = target: T3, 320 non-olfactory GPCRs (Homo sapiens, UniProt Q86SQ6)
T3 construct: expressed in transfected cells; host or cells: HTLA cells
T3 sequence (Q86SQ6 whole entry): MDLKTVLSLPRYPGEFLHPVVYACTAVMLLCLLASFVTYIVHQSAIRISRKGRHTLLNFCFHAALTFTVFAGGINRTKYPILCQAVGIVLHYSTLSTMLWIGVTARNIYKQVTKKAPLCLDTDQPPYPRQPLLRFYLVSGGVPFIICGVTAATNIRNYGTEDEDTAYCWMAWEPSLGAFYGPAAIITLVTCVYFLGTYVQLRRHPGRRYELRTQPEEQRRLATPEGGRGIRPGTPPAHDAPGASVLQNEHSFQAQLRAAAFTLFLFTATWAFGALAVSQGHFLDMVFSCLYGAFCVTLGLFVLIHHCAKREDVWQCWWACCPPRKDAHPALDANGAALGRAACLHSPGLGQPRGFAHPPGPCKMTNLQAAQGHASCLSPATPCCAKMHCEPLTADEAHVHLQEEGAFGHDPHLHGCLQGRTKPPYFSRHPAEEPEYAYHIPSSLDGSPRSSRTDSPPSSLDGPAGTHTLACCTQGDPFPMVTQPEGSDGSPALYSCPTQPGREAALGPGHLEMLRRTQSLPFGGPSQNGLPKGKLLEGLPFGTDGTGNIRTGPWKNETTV
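Further: compound tested at 1 µM final concentration.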

T2 sequence (P51684 whole entry): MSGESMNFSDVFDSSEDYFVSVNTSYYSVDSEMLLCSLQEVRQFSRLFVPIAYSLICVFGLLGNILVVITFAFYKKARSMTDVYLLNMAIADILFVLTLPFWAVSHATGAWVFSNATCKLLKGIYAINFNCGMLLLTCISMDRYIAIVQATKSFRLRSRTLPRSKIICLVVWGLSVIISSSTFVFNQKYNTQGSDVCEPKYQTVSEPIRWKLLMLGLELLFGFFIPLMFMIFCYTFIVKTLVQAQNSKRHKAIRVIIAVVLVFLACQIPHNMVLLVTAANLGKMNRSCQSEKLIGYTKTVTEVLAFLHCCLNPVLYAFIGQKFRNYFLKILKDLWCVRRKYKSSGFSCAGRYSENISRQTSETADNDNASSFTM
T1 sequence (P41180 20-1078): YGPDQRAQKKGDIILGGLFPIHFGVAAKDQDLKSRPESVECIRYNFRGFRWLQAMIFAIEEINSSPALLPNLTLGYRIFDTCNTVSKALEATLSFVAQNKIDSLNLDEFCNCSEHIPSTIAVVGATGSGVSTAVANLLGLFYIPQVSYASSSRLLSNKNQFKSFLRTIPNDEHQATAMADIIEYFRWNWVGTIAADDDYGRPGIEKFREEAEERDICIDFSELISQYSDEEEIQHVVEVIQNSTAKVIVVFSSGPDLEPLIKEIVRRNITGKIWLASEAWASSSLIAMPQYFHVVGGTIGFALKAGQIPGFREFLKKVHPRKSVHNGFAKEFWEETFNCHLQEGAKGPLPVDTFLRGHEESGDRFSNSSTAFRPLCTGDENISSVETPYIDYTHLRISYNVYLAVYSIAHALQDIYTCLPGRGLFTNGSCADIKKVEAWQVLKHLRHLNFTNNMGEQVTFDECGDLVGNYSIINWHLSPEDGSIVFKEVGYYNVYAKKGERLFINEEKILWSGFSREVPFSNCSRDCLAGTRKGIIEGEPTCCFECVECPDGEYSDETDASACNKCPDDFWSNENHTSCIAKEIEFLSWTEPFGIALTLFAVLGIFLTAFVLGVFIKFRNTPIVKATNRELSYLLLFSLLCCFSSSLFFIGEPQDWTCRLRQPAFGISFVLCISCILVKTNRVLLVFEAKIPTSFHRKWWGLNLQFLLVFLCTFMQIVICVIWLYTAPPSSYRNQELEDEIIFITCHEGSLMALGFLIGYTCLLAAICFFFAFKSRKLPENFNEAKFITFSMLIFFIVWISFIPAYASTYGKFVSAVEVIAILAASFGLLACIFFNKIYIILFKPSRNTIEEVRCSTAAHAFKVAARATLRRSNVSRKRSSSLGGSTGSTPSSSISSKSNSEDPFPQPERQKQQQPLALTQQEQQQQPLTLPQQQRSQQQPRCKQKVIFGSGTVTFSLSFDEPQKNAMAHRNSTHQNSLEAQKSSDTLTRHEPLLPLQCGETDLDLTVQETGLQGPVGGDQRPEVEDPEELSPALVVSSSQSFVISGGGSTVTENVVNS

CCOc1cccc2cc(C(C)NCC3(O)CCCCC3)oc12 (stereo not shown) [O4LE6]
Fold of Basal [1]: 0.9783 and 1.253 and 1.231 and 1.397
Fold of Basal [2]: 0.9905 and 0.8775 and 0.7328 and 0.5067
Fold of Basal [3]: 1.165 and 1.05 and 0.9669 and 0.8841
Fold of Basal [4]: 0.9894 and 1.559 and 1.433 and 1.372

Source: publication PMC7044277 (Nature Communications, 2020)
